According to the supplement of paper PMC11451515:

What was measured:
[1] = system: NOMO1; assay: AUC of viability dose-response curve (% viability x log10 dose units); higher = less sensitive; conditions: 48 h
Procedure, shortened: (§1)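 Leukemia cells adapted to each medium were seeded at 500 or 1000 cells/well in 1536-well plates and dosed with library compounds in DMSO at 11 threefold doses from 47 μM to 0.79 nM for 48 h at 37°C. CellTiter-Glo One luminescence was normalised per plate to DMSO and cell-free wells, then fitted with a four-parameter log-logistic model over log10 doses. Area under the curve was taken from this fit by the trapezoidal rule, with curves above full viability scaled and curves failing quality control removed.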

[2] = system: P12-Ichikawa; assay: as above; conditions: 48 h
Procedure, shortened: as §1

[3] = system: SEM cells; assay: as above; conditions: 48 h
Procedure, shortened: as §1

[4] = system: SEM cells; assay: cell viability relative to DMSO control; higher = less cytotoxic; conditions: 48 h
Procedure, shortened: (§2)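 Before seeding, each leukemia line was adapted for at least four passages in each medium. NOMO1 or SEM cells (500 cells/well) and P12-Ichikawa cells (1000 cells/well) went into 1536-well plates at 5 μl, then received library compounds in DMSO by pin dosing across 11 threefold concentrations, 47 μM to 0.79 nM. Readout was CellTiter-Glo One luminescence after 48 h at 37°C, and viability is given as a per-plate percentage of DMSO wells, with cell-free wells as background.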

[5] = system: P12-Ichikawa; assay: as above; conditions: HPLM + 10% dialyzed FBS, 48 h
Procedure, shortened: as §2

CCCCC[C@H](O)/C=C/[C@H]1[C@H](O)CC(=O)[C@@H]1CCCCCCC(=O)O
AUC of viability dose-response curve
Conditions	[1]	[2]	[3]
HPLM + 10% dialyzed FBS	412	464	402
RPMI 5 mM glucose + 10% FBS	455	445	399
RPMI 5 mM glucose + 10% dialyzed FBS	417	453	409

COc1c(O)cc2c(c1O)[C@@H]1O[C@H](CO)[C@@H](O)[C@H](O)[C@H]1OC2=O
AUC of viability dose-response curve
Conditions	[1]	[2]	[3]
HPLM + 10% dialyzed FBS	419	432	431
RPMI 5 mM glucose + 10% FBS	448	432	394
RPMI 5 mM glucose + 10% dialyzed FBS	454	427	409

COc1ccc(-c2oc3cc(OC)ccc3c2C(=O)c2ccc(C#N)cc2)cc1
cell viability [%], [4]
Conditions	HPLM + 10% dialyzed FBS	RPMI 5 mM glucose + 10% FBS	RPMI 5 mM glucose + 10% dialyzed FBS
0.000781 µM	114	93.2	113
0.00234 µM	117	109	123
0.00702 µM	120	133	144
0.0211 µM	121	127	124
0.0632 µM	128	130	150
0.19 µM	136	140	175
0.569 µM	129	139	162
1.71 µM	141	148	174
5.12 µM	131	136	147
15.4 µM	142	123	136
46.1 µM	125	124	136

AUC of viability dose-response curve
Conditions	[1]	[2]	[3]
HPLM + 10% dialyzed FBS	326	354	455
RPMI 5 mM glucose + 10% FBS	311	345	460
RPMI 5 mM glucose + 10% dialyzed FBS	321	374	451

CC/1=C(\CCN2CCC(CC2)C3=NOC4=C3C=CC(=C4)F)C(=O)N/5CCCCC5=N1
Conditions	AUC of viability dose-response curve	cell viability [%]
[1], HPLM + 10% dialyzed FBS	457	–
[1], RPMI 5 mM glucose + 10% FBS	477	–
[1], RPMI 5 mM glucose + 10% dialyzed FBS	472	–
[2], HPLM + 10% dialyzed FBS	463	–
[2], RPMI 5 mM glucose + 10% FBS	457	–
[2], RPMI 5 mM glucose + 10% dialyzed FBS	476	–
[3], HPLM + 10% dialyzed FBS	475	–
[3], RPMI 5 mM glucose + 10% FBS	473	–
[3], RPMI 5 mM glucose + 10% dialyzed FBS	468	–
[5], 0.000781 µM	–	125
[5], 0.00234 µM	–	120
[5], 0.00702 µM	–	122
[5], 0.0211 µM	–	118
[5], 0.0632 µM	–	130
[5], 0.19 µM	–	124
[5], 0.569 µM	–	127
[5], 1.71 µM	–	116
[5], 5.12 µM	–	126
[5], 15.4 µM	–	133
[5], 46.1 µM	–	127

[4], HPLM + 10% dialyzed FBS
Conditions	cell viability [%]
0.000781 µM	102
0.00234 µM	91.1
0.00702 µM	106
0.0211 µM	103
0.0632 µM	122
0.19 µM	124
0.569 µM	72.9
1.71 µM	45.9
5.12 µM	112
15.4 µM	115
46.1 µM	110
